Tests used:
Settings in all cases: 72 h
Caco-2 [1] = test: drug sensitivity score (DSS) for viability; higher = more toxic; extreme values may be limits of the assay
HepG2 [2] = test: as above
Calu-3 [3] = test: as above
Vero E6 [4] = test: as above
U2OS [5] = test: as above
Caco-2 [6] = test: cell viability relative to DMSO; higher = less toxic
HepG2 [7] = test: as above
Calu-3 [8] = test: as above
Vero E6 [9] = test: as above
U2OS [10] = test: as above
Caco-2 [11] = test: relative viability EC50 (midpoint between 100% and the lowest measured viability); higher = less toxic
HepG2 [12] = test: as above
Calu-3 [13] = test: as above
Vero E6 [14] = test: as above
U2OS [15] = test: as above

| Compound | drug sensitivity score (Caco-2 [1]) | drug sensitivity score (HepG2 [2]) | drug sensitivity score (Calu-3 [3]) | drug sensitivity score (Vero E6 [4]) | drug sensitivity score (U2OS [5]) | cell viability (Caco-2 [6]; 1 nM) | cell viability (Caco-2 [6]; 10 nM) | cell viability (Caco-2 [6]; 100 nM) | cell viability (Caco-2 [6]; 1000 nM) | cell viability (Caco-2 [6]; 10000 nM) | cell viability (HepG2 [7]; 1 nM) | cell viability (HepG2 [7]; 10 nM) | cell viability (HepG2 [7]; 100 nM) | cell viability (HepG2 [7]; 1000 nM) | cell viability (HepG2 [7]; 10000 nM) | cell viability (Calu-3 [8]; 1 nM) | cell viability (Calu-3 [8]; 10 nM) | cell viability (Calu-3 [8]; 100 nM) | cell viability (Calu-3 [8]; 1000 nM) | cell viability (Calu-3 [8]; 10000 nM) | cell viability (Vero E6 [9]; 1 nM) | cell viability (Vero E6 [9]; 10 nM) | cell viability (Vero E6 [9]; 100 nM) | cell viability (Vero E6 [9]; 1000 nM) | cell viability (Vero E6 [9]; 10000 nM) | cell viability (U2OS [10]; 1 nM) | cell viability (U2OS [10]; 10 nM) | cell viability (U2OS [10]; 100 nM) | cell viability (U2OS [10]; 1000 nM) | cell viability (U2OS [10]; 10000 nM) | relative viability EC50 (Caco-2 [11]) | relative viability EC50 (HepG2 [12]) | relative viability EC50 (Calu-3 [13]) | relative viability EC50 (Vero E6 [14]) | relative viability EC50 (U2OS [15]) |
| --- | --- | --- | --- | --- | --- | --- | --- | --- | --- | --- | --- | --- | --- | --- | --- | --- | --- | --- | --- | --- | --- | --- | --- | --- | --- | --- | --- | --- | --- | --- | --- | --- | --- | --- | --- |
| CCC1(c2ccccc2)C(=O)NCNC1=O [primidone] | 0 | 0.2 | 0 | 0 | 0 | 93.1% | 100% | 84.5% | 101% | 115% | 112% | 78.9% | 89.4% | 84.9% | 96.3% | 102% | 94.8% | 105% | 94.1% | 114% | 94.5% | 95.1% | 92% | 92.2% | 95.3% | 102% | 98.3% | 101% | 102% | 107% | > 10 µM | > 10 µM | > 10 µM | > 10 µM | > 10 µM |
| C[C@H](NCc1ccc(OCc2ccccc2F)cc1)C(N)=O [priralfinamide] | 0 | 0 | 0 | 0 | 0 | 97.8% | 104% | 91.6% | 95% | 91.2% | 98% | 87.3% | 98.5% | 97.4% | 93.6% | 103% | 95.2% | 105% | 91.5% | 99.5% | 99.5% | 95.3% | 99.4% | 92.3% | 91.7% | 99.2% | 102% | 96.5% | 99.6% | 97.6% | > 10 µM | > 10 µM | > 10 µM | > 10 µM | > 10 µM |
| CN(C)CCCN1c2ccccc2Sc2ccccc21 [promazine] | 0 | 0.1 | 0 | 0 | 0 | 95.5% | 98.3% | 93.6% | 96.1% | 102% | 102% | 89.6% | 102% | 93.5% | 87.6% | 93.7% | 102% | 95.2% | 95.6% | 101% | 102% | 100% | 95.1% | 97.2% | 96% | 98.7% | 102% | 96.4% | 96.3% | 99.5% | > 10 µM | > 10 µM | > 10 µM | > 10 µM | > 10 µM |
| O=C1C[C@@]2(C(=O)N1)C(=O)N(Cc1ccc(Br)cc1F)C(=O)c1cccn12 [ranirestat] | 0 | 0 | 0 | 0 | 0 | 99.6% | 98.4% | 101% | 98.6% | 103% | 102% | 106% | 90.6% | 99.2% | 104% | 92.6% | 104% | 104% | 102% | 95.8% | 94% | 96.7% | 90.8% | 92.2% | 100% | 96.8% | 97.1% | 103% | 96.8% | 100% | > 10 µM | > 10 µM | > 10 µM | > 10 µM | > 10 µM |
| C=CCNc1c(O)cc2c(O)c1C[C@@H](C)C[C@H](OC)[C@H](O)[C@@H](C)/C=C(\C)[C@H](OC(N)=O)[C@@H](OC)/C=C\C=C(/C)C(=O)N2 [retaspimycin] | 8.8 | 30 | 11.5 | 9.7 | 19.2 | 92.1% | 101% | 94% | 60% | 27.8% | 97.3% | 95.6% | 6.2% | 1.8% | 2.9% | 94.2% | 89.1% | 84.5% | 46.2% | 41.2% | 99.3% | 100% | 104% | 53.3% | 25.5% | 96.5% | 99% | 88% | 5.2% | 2.1% | 0.819 µM | 0.0315 µM | 0.199 µM | 0.815 µM | 0.232 µM |
| C[C@H](O)[C@H](O)[C@H]1CNc2nc(N)[nH]c(=O)c2N1 [sapropterin] | 0 | 0.1 | 0 | 0 | 0 | 109% | 114% | 90.3% | 107% | 106% | 98.6% | 87.3% | 94.2% | 102% | 86.1% | 94.9% | 97% | 98.6% | 106% | 99.4% | 97.1% | 102% | 99.6% | 96.9% | 92.6% | 99.9% | 95.4% | 101% | 91.3% | 99.9% | > 10 µM | > 10 µM | > 10 µM | > 10 µM | > 10 µM |
